In patent US20240376122A1, “SMALL MOLECULE COMPOUNDS” (APERTOR PHARMACEUTICALS, INC., priority 2021, published 2024):

What was measured:
[1] = system: Saccharomyces cerevisiae BY4742; test: Anti-yeast activity assay (minimum inhibitory concentration); format: cell-based; conditions: YPD media, 96-well plates, 30° C. for 16 hours without shaking, lowest concentration with no obvious culture growth, triplicate, read-out: MIC against Saccharomyces cerevisiae BY4742
Experimental: A single colony of Saccharomyces cerevisiae BY4742 was inoculated into 2 mL YPD media in a 5 mL falcon tube to grow overnight at 30° C. The overnight culture was inoculated into 5 mL YPD media in a glass tube at OD600-0.1, and the new culture was grown at 30° C. until OD600 reached 0.5. The culture was then diluted to OD600-0.01 and aliquoted into 96-well plates at 100 μL per well. The compound was dissolved in ethanol at 75 μM. Three-fold serial dilutions were conducted for the Compound 10 times using ethanol, respectively. 4 μL of each concentration compound solution was added and mixed with 384 μL YPD media. 100 μL of the YPD media solutions were mixed with the Saccharomyces cerevisiae cultures in 96-well plates by pipette, respectively. The plates were incubated at 30° C. for 16 hours without shaking. The lowest Compound concentrations in wells that have no obvious culture growth were defined as the minimum inhibitory concentrations (MICs). The assays were conducted in triplicate.

[2] = observed in humans; cited from earlier work

Row | MIC [1] [µM] | SMILES | terminal half-life [2] [h]
1 | < 0.0556 | CO[C@@H]1/C(C)=C/C=C/C=C/[C@@H](C)C[C@@H](C)C(=O)[C@H](OC)[C@H](O)/C(C)=C/[C@@H](C)C(=O)C[C@@H]([C@H](C)C[C@@H]2CC[C@@H](O)[C@H](OC)C2)OC(=O)[C@@H]2CCCCN2C(=O)C(=O)[C@]2(O)O[C@@H](CC[C@H]2C)[C@H]1C (single isomer, unassigned) [Compound 15] | 
2 |  | CO[C@H]1C[C@@H]2CC[C@@H](C)[C@@](O)(O2)C(=O)C(=O)N2CCCC[C@H]2C(=O)O[C@H]([C@H](C)C[C@@H]2CC[C@@H](O)[C@H](OC)C2)CC(=O)[C@H](C)/C=C(\C)[C@@H](O)[C@@H](OC)C(=O)[C@H](C)C[C@H](C)/C=C/C=C/C=C/1C [rapamycin] | 24 to 48
